Test results: BigSolDB 2.1

Oc1ccc(OCc2ccccc2)cc1
solubility (mole fraction)
Conditions | 283.15 K | 288.15 K | 293.15 K | 298.15 K | 303.15 K | 308.15 K | 313.15 K
in 1,4-dioxane | – | 0.0903 | 0.131 | 0.19 | 0.258 | 0.342 | 0.435
in acetonitrile | 0.036 | 0.0447 | 0.0546 | 0.0669 | 0.0821 | 0.101 | 0.125
in cyclohexane | 0.000542 | 0.000933 | 0.00156 | 0.00261 | 0.00396 | 0.0058 | 0.00802
in ethanol | 0.0319 | 0.0396 | 0.0484 | 0.0595 | 0.0735 | 0.0905 | 0.111
in ethyl acetate | 0.0773 | 0.129 | 0.201 | 0.293 | 0.399 | 0.519 | 0.632
in isopropanol | 0.0317 | 0.0383 | 0.0476 | 0.0585 | 0.0736 | 0.0921 | 0.116
in methanol | 0.0381 | 0.0476 | 0.0593 | 0.0739 | 0.0908 | 0.111 | 0.136
in n-butanol | 0.0227 | 0.0282 | 0.0346 | 0.0434 | 0.0543 | 0.0666 | 0.0835
in n-hexane | 0.000327 | 0.000453 | 0.000749 | 0.00108 | 0.00161 | 0.00226 | 0.00313
in n-octanol | 0.00719 | 0.0101 | 0.0136 | 0.0171 | 0.0224 | 0.0289 | 0.0355
in n-propanol | 0.0287 | 0.0352 | 0.0428 | 0.0521 | 0.0642 | 0.0794 | 0.0994
in water | 5e-06 | 7e-06 | 9e-06 | 1.3e-05 | 1.7e-05 | 2.3e-05 | 3e-05
